Data: ChEMBL document CHEMBL4422621, “Novel chalcone and flavone derivatives as selective and dual inhibitors of the transport proteins ABCB1 and ABCG2” (Eur J Med Chem, 2019)

What was measured:
[1] = molecular target: T1, Broad substrate specificity ATP-binding cassette transporter ABCG2 (Homo sapiens, UniProt Q9UNQ0); assay: Inhibition of ABCG2 (unknown origin) expressed in MDCK II BCRP cells assessed as effect on pheophorbide A accumulation after 120 mins by flow cytometric analysis; assay type: cell-based
T1 sequence (Q9UNQ0 whole entry): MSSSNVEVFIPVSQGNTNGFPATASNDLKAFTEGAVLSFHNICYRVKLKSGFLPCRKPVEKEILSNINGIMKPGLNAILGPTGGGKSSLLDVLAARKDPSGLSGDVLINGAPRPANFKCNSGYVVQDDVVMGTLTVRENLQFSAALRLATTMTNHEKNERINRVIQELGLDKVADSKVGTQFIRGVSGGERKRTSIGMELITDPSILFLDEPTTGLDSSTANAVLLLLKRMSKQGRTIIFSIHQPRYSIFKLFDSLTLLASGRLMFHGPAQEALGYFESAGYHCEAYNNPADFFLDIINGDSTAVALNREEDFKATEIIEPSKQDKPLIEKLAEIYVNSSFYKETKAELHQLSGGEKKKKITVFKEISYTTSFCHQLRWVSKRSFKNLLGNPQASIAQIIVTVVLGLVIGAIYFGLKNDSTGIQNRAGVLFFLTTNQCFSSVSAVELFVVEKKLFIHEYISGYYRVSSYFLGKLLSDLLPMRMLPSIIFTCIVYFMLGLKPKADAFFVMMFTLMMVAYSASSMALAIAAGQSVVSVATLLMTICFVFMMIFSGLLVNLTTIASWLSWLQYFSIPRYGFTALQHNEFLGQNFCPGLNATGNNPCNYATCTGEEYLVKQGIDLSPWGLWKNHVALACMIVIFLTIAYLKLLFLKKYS

ABCG2 (BCRP) [2] = molecular target: T2, ABCG2 (BCRP) (Homo sapiens, UniProt Q9UNQ0); assay: (§1) Inhibition of ABCG2 (unknown origin) expressed in MDCK II BCRP cells assessed as effect on heophorbide A accumulation at 5 to 10 uM after 120 mins by flow cytometric analysis relative to control; assay type: cell-based; settings: MDCK II BCRP cells expressing ABCG2, probe pheophorbide A
T2 sequence (Q9UNQ0 whole entry): T1 sequence (Q9UNQ0 whole entry)

[3] = molecular target: ATP-dependent translocase ABCB1 (Homo sapiens, UniProt P08183); assay: Inhibition of ABCB1 in human A2780/ADR cells at 5 to 10 uM preincubated for 30 mins followed by calcein AM addition and measured every 60 secs for 1 hr by fluorescence assay; assay type: cell-based
[4] = molecular target: Multidrug resistance-associated protein 1 (Homo sapiens, UniProt P33527); assay: Inhibition of ABCC1 in human […] cells at 5 to 10 uM preincubated for 30 mins followed by calcein AM addition and measured every 60 secs for 1 hr by fluorescence assay; assay type: cell-based
[5] = molecular target: T1, Broad substrate specificity ATP-binding cassette transporter ABCG2; assay: as §1; assay type: cell-based; settings: 2 h
[6] = Growth inhibition of MDCK2 cells after 72 hrs by MTT assay; assay type: cell-based, Canis lupus familiaris, MDCK-II; settings: dog
[7] = Growth inhibition of MDCK2 cells expressing BCRP (unknown origin) after 72 hrs by MTT assay; assay type: ADME, cell-based, Canis lupus familiaris, MDCK-II; settings: dog
ABCG2 (BCRP) [8] = assay: Therapeutic index, ratio of GI50 for MDCK2 cells expressing BCRP (unknown origin) to EC50 for ABCG2 (unknown origin) co-expressed in MDCK2 cells expressing BCRP (unknown origin); assay type: toxicity, cell-based; settings: dog

Chain of ATP-dependent translocase ABCB1 (P08183 whole entry): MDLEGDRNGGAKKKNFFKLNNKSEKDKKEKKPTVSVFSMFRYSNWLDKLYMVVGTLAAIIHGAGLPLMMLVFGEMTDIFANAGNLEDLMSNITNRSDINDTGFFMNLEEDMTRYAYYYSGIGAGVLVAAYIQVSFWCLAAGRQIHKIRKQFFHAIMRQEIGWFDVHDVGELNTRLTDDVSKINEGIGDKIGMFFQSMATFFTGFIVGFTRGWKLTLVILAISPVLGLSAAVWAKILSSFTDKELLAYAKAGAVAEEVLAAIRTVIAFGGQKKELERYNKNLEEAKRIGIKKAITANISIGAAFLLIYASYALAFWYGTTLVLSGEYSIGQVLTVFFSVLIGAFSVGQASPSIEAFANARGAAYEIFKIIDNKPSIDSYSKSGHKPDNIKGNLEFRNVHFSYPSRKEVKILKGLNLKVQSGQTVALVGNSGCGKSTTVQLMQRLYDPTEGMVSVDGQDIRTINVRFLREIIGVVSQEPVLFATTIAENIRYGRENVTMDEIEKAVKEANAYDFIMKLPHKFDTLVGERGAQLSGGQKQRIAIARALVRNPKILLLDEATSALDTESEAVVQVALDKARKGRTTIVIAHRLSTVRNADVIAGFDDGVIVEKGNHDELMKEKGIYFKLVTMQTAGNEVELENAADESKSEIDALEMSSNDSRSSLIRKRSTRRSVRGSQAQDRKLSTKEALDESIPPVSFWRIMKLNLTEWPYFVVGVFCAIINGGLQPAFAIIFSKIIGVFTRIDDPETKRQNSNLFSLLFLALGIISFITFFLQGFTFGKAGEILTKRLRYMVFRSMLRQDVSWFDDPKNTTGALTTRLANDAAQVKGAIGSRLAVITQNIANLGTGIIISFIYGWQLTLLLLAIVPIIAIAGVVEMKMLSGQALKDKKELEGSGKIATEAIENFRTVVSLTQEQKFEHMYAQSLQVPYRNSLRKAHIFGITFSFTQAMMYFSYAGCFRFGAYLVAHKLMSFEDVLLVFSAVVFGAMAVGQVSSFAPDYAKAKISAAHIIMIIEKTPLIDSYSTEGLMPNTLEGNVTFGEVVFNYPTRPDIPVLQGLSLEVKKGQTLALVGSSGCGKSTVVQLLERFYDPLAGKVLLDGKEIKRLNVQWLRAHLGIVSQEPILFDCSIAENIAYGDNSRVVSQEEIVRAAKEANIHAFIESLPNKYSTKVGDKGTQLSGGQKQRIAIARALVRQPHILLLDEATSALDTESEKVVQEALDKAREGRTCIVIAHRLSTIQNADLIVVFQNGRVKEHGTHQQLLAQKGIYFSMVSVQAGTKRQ
Chain of Multidrug resistance-associated protein 1 (P33527 whole entry): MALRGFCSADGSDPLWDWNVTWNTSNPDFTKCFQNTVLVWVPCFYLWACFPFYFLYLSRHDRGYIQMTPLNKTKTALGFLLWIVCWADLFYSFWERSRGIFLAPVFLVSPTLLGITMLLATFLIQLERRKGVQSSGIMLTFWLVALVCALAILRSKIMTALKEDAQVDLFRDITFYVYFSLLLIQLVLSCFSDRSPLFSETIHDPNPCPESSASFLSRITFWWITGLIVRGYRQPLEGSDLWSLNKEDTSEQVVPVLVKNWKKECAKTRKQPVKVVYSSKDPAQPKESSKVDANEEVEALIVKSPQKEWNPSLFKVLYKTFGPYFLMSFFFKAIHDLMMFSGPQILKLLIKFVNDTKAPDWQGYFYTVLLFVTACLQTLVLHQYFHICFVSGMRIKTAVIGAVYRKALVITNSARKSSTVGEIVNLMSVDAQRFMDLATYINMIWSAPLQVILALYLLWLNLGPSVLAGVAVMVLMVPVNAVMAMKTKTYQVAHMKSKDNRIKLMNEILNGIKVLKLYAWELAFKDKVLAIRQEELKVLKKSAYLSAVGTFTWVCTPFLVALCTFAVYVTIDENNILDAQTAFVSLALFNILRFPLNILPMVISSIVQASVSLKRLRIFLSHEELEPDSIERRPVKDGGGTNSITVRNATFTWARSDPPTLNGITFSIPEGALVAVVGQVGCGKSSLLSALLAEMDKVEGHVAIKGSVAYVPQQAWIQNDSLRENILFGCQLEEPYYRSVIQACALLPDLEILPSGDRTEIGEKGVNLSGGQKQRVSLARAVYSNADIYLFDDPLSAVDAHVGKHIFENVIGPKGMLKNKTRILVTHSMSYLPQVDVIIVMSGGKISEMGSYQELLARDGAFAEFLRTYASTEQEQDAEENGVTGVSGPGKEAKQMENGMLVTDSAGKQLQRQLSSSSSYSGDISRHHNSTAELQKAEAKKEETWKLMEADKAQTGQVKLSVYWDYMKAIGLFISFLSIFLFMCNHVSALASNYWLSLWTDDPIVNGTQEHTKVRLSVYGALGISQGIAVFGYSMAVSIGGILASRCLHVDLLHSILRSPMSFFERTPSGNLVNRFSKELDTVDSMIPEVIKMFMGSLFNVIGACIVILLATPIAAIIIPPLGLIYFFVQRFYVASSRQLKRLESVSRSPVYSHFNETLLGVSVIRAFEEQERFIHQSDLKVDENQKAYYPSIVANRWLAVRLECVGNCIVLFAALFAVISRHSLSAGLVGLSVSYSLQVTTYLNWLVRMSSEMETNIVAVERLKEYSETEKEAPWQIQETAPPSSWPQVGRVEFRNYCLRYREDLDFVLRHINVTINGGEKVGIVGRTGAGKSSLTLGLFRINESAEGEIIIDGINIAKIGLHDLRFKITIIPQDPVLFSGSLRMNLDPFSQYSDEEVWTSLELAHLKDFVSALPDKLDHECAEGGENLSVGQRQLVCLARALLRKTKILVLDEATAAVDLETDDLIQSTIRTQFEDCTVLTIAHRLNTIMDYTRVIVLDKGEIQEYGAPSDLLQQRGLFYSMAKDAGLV

Row | Compound | IC50 [1] | inhibition at 2 h (ABCG2 (BCRP) [2]) | inhibition (INH) [5] | other results
1 | COc1cc(C(=O)/C=C/c2cc(OC)c(OC)c(OC)c2)ccc1OCC(=O)Nc1ccc2c(c1)COC2=O | 11.4 µM | ≥ 25% | – | –
2 | CCCCOc1ccc(/C=C/C(=O)c2ccc(O)cc2)cc1 | 7.29 µM | ≥ 25% | – | inhibition (INH) [3]: Not Active; inhibition (INH) [4]: Not Active
3 | CCOc1ccc(/C=C/C(=O)c2ccc(OCC(=O)Nc3ccc4c(c3)COC4=O)cc2)cc1 | 20.1 µM | ≥ 25% | – | –
4 | O=C(COc1ccc(C(=O)/C=C/c2cccs2)cc1)Nc1ccc2c(c1)COC2=O | – | – | Not Active | –
5 | COc1ccc(/C=C/C(=O)c2ccc(OCC(=O)Nc3ccc4c(c3)COC4=O)cc2)cc1 | – | – | Not Active | –
6 | COc1ccc(NC(=O)COc2ccc(C(=O)/C=C/c3ccc(Cl)cc3)cc2)cc1OC | 6.95 µM | ≥ 25% | – | –
7 | O=C(/C=C/c1ccc(OCc2ccc(Cl)cc2Cl)cc1)c1ccc(O)cc1 | – | – | Not Active | inhibition (INH) [3]: Not Active; inhibition (INH) [4]: Not Active
8 | CCOc1ccc(/C=C/C(=O)c2ccc(OCC(=O)NCc3ccc4c(c3)OCO4)cc2)cc1 | – | – | Not Active | –
9 | COc1cc(/C=C/C(=O)c2cccc(O)c2)cc(OC)c1OC | 4.28 µM | ≥ 25% | – | inhibition (INH) [3]: Not Active; inhibition (INH) [4]: Not Active
10 | O=C(COc1ccc(C(=O)/C=C/c2ccc([N+](=O)[O-])cc2)cc1)Nc1ccc2c(c1)COC2=O | – | – | Not Active | –
11 | CCOc1ccc(/C=C/C(=O)c2ccc(O)cc2)cc1 | 6.44 µM | ≥ 25% | – | inhibition (INH) [3]: Not Active; inhibition (INH) [4]: Not Active
12 | COc1cc(/C=C/C(=O)c2ccc(OCC(=O)Nc3ccc4c(c3)COC4=O)cc2)cc(OC)c1OC | 8.44 µM | ≥ 25% | – | –
13 | O=C(/C=C/c1ccc(OCc2ccc(Cl)cc2)cc1)c1ccc(O)cc1 | 20 µM | ≥ 25% | – | inhibition (INH) [3]: Not Active; inhibition (INH) [4]: Not Active
14 | O=C(/C=C/c1ccco1)c1ccccc1O | 16.2 µM | ≥ 25% | – | inhibition (INH) [3]: Not Active; inhibition (INH) [4]: Not Active
15 | O=C(COc1ccc(C(=O)/C=C/c2ccccc2Cl)cc1)Nc1ccc2c(c1)COC2=O | – | – | Not Active | –
16 | COc1cccc(/C=C/C(=O)c2ccc(OCC(=O)Nc3ccc(OC)c(OC)c3)cc2)c1 | 3.58 µM | ≥ 25% | – | GI50 at 72 h [6]: 33.2 µM; GI50 at 72 h [7]: 36.7 µM; selectivity ratio (ABCG2 (BCRP) [8]): 10.3
17 | COc1ccc(/C=C/C(=O)c2ccc(OCC(=O)NCc3ccc4c(c3)OCO4)cc2)cc1 | 10 µM | ≥ 25% | – | –
18 | O=C(COc1c(-c2ccccc2)oc2ccccc2c1=O)Nc1ccc2c(c1)COC2=O | 13.1 µM | ≥ 25% | – | –
19 | COc1ccc(/C=C/C(=O)c2cccc(OCC(=O)Nc3ccc(OC)c(OC)c3)c2)cc1OC | 6.33 µM | ≥ 25% | – | –
20 | COc1ccc(NC(=O)COc2ccc(C(=O)/C=C/c3ccco3)cc2)cc1OC | 5.4 µM | ≥ 25% | – | –
21 | O=C(/C=C/c1ccccc1C(F)(F)F)c1ccc(O)cc1 | 4.91 µM | ≥ 25% | – | inhibition (INH) [3]: Not Active; inhibition (INH) [4]: Not Active
22 | Cc1ccc(-c2oc3ccccc3c(=O)c2OCC(=O)Nc2ccc3c(c2)COC3=O)cc1 | – | – | Not Active | –
23 | COc1ccc(-c2oc3ccccc3c(=O)c2OCC(=O)Nc2ccc3c(c2)COC3=O)cc1 | – | – | Not Active | –
24 | CCCCOc1ccc(/C=C/C(=O)c2ccc(OCC(=O)Nc3ccc4c(c3)COC4=O)cc2)cc1 | – | – | Not Active | –

Row | Compound | IC50 [1] | inhibition at 2 h (ABCG2 (BCRP) [2]) | inhibition (INH) [5] | other results
25 | CCCOc1ccc(/C=C/C(=O)c2ccc(OCC(=O)Nc3ccc4c(c3)COC4=O)cc2)cc1 | – | – | Not Active | –
26 | O=C(COc1ccc(/C=C/C(=O)c2ccc(F)cc2)cc1)Nc1ccc2c(c1)COC2=O | – | – | Not Active | –
27 | COc1cccc(/C=C/C(=O)c2ccc(OCC(=O)Nc3ccc4c(c3)COC4=O)cc2)c1 | – | – | Not Active | –
28 | O=C(COc1ccc(C(=O)/C=C/c2ccc(OCc3ccccc3)cc2)cc1)Nc1ccc2c(c1)COC2=O | – | – | Not Active | –
29 | O=C(COc1ccc(C(=O)/C=C/c2c(F)cccc2F)cc1)NCc1ccc2c(c1)OCO2 | – | – | Not Active | –
30 | O=C(COc1ccc(C(=O)/C=C/c2ccccc2)cc1)Nc1ccc2c(c1)COC2=O | – | – | Not Active | –
31 | Cc1ccc(-c2c(OCC(=O)Nc3ccc(Br)cc3)oc3ccccc3c2=O)cc1 | – | – | Not Active | –
32 | COc1ccc(/C=C/C(=O)c2cccc(OCC(=O)Nc3ccc4c(c3)COC4=O)c2)cc1OC | 12 µM | ≥ 25% | – | –
33 | O=C(COc1ccc(C(=O)/C=C/c2ccco2)cc1)Nc1ccc2c(c1)COC2=O | – | – | Not Active | –
34 | O=C(COc1c(-c2ccco2)oc2ccccc2c1=O)Nc1ccc2c(c1)COC2=O | – | – | Not Active | –
35 | COc1ccc(-c2oc3ccccc3c(=O)c2OCC(=O)Nc2ccc3c(c2)COC3=O)cc1OC | – | – | Not Active | –
36 | O=C(/C=C/c1ccco1)c1ccc(O)cc1 | – | – | Not Active | inhibition (INH) [3]: Not Active; inhibition (INH) [4]: Not Active
37 | COc1ccc(-c2c(OCC(=O)Nc3ccc(Br)cc3)oc3ccccc3c2=O)cc1 | – | – | Not Active | –
38 | O=C(COc1c(-c2cccs2)oc2ccccc2c1=O)Nc1ccc2c(c1)COC2=O | – | – | Not Active | –
39 | O=C(/C=C/c1cccs1)c1ccccc1O | 10.5 µM | ≥ 25% | – | inhibition (INH) [3]: Not Active; inhibition (INH) [4]: Not Active
40 | COc1cc(-c2c(OCC(=O)Nc3cccc4ccccc34)oc3ccccc3c2=O)cc(OC)c1OC | 10.5 µM | ≥ 25% | – | –
41 | O=C(COc1ccc(C(=O)/C=C/c2c(F)cccc2F)cc1)Nc1ccc2c(c1)COC2=O | 10.9 µM | ≥ 25% | – | –
42 | O=C(/C=C/c1c(F)cccc1F)c1ccc(O)cc1 | 7.22 µM | ≥ 25% | – | inhibition (INH) [3]: Not Active; inhibition (INH) [4]: Not Active
43 | COc1cc(-c2oc3ccccc3c(=O)c2OCC(=O)Nc2ccc3c(c2)COC3=O)cc(OC)c1OC | 9 µM | ≥ 25% | – | –
44 | COc1ccc(/C=C/C(=O)c2ccc(OCC(=O)Nc3ccc4c(c3)COC4=O)cc2)cc1OC | 6.63 µM | ≥ 25% | – | –
45 | O=C(/C=C/c1cccs1)c1ccc(O)cc1 | 18.2 µM | ≥ 25% | – | inhibition (INH) [3]: Not Active; inhibition (INH) [4]: Not Active
46 | O=C(COc1ccc(C(=O)/C=C/c2ccc(OCc3ccc(Cl)cc3Cl)cc2)cc1)Nc1ccc2c(c1)COC2=O | – | – | Not Active | –
47 | O=C(/C=C/c1ccc(OCc2ccccc2)cc1)c1ccc(O)cc1 | 9.21 µM | ≥ 25% | – | inhibition (INH) [3]: Not Active; inhibition (INH) [4]: Not Active
48 | O=C(COc1ccc(C(=O)/C=C/c2ccc(OCc3ccc(Cl)cc3)cc2)cc1)Nc1ccc2c(c1)COC2=O | – | – | Not Active | –
